From patent US3989835A, “Method of using 6-substituted amino phenyl-2,3,5,6-tetra-hydro[2,1-b]thiazoles for controlling gastrointestinal nematodes” (American Cyanamid Company, priority 1974, dated 1976)
Where a name gives a salt, the structure may show the parent alone. Read-outs that look alike come from different tables or passages of the source.

Key:
Trichuris vulpis = assay: Oral or subcutaneous activity vs. mature Trichuris vulpis in dogs (critical test); format: in vivo
Method: (§1) Dogs infected with mature adult whipworms Trichuris vulpis were treated with various single or double doses of unsubstituted or substituted tetramisole analogs by the oral or subcutaneous route (Table XI hereinafter). Whipworms passed in the feces were collected for several days, and the whipworms still present determined at necropsy. Percent efficacy was determined in these "critical" tests. […] Trichuris is a type of nematode refactory to treatment with most prior anthelmintics at well tolerated doses. Taxonomically allied nematodes, e.g., Trichinella and Capillaria are also refractory to most anthelmintics.

helminths [1] = details: prior art compounds; cited from earlier work
whipworms = details: prior art compounds, especially in dogs; cited from earlier work
Nematospiroides dubius = assay: Anthelmintic efficacy against N. dubius in mice, single oral dose; format: in vivo, Nematospiroides dubius (in albino female mice); details: for inhibition in vivo at 10 mg/kg: single oral dose 10 mg./Kg.; for inhibition in vivo at 20 mg/kg: single oral dose 20 mg./Kg.; for inhibition in vivo at 5 mg/kg: single oral dose 5.0 mg./Kg.
Method: Albino female mice are each inoculated with about 20 infectious larvae of Nematospiroides dubius. This nematode is a representative of the economical important trichostrongylis worms of ruminants and other hosts, and of nematodes in general. Twenty-two days after inoculation, groups of four randomly selected mice containing adult N. dubius are given single oral doses of test compounds dissolved or suspended in 0.4 ml. of water per 20 gram mouse. At 26 or 27 days after inoculation, treated mice and in each test four randomly selected groups of untreated mice are necropsied. The number of worms in the small intestine of each mouse are determined by microscopic examination. Average worm numbers for each treated group and for the untreated controls are computed and the percent efficacy determined by the customary formula:
(Average Worms in Control - Average Worms in Treated)/(Average Worms in Control) X 100.

in vivo [2] = details: for Approx. LD50 /ED50: chemotherapeutic index, mouse oral, N. dubius; for LD50: mouse, in vivo, po; for Dead/Total: mice
Excerpt: Data on the acute oral toxicity to mice of various single oral doses of the above compounds and several analogs were obtained by conventional procedures, (Table IX hereinafter).

in vivo [3] = details: dog
Method: as §1

helminths [4] = assay: Activity against helminths (general statement); details: in vivo
[5] = Heligmosomoides polygyrus, po, mouse oral, Table IX, read-out: Approx. ED50 vs. N. dubius
[6] = Approx. LD50, mouse oral, Table IX
[7] = LD50, mice, adjusted to molar equivalents of tetramisole free base
[8] = oral 5 Mg./Kg., based on total worms in all dogs
[9] = Heligmosomoides polygyrus, po, as Base, single oral dose, mice, > indicates inactive at dose shown, read-out: Approx. ED50
[10] = Heligmosomoides polygyrus, po, single oral dose 2.0 mg./Kg., molar-adjusted, read-out: Percent Nematospiroides Activity
[11] = Heligmosomoides polygyrus, po, molar-adjusted, read-out: Percent Nematospiroides Activity

| Compound | % Efficacy SC (Trichuris vulpis; SC 5 Mg./Kg.) | ED50 (Nematospiroides dubius; [5]) | Approx. LD50 /ED50 (in vivo [2]; Table IX) | LD50 (in vivo [2]; [6]) | LD50 (in vivo [2]; [7]) | Dead/Total (in vivo [2]; single oral dose 20 Mg./Kg.) | % Efficacy SC (Trichuris vulpis; SC 2.5 Mg./Kg.) | % Efficacy Orally (Trichuris vulpis; [8]) | MTD (in vivo [3]; po) | MTD (in vivo [3]; sc) | ED50 (Nematospiroides dubius; [9]) | inhibition in vivo at 2 mg/kg (Nematospiroides dubius; [10]) | inhibition in vivo at 10 mg/kg (Nematospiroides dubius; [11]) | inhibition in vivo at 20 mg/kg (Nematospiroides dubius; [11]) | Dead/Total (in vivo [2]; single oral dose 50 Mg./Kg.) | Dead/Total (in vivo [2]; single oral dose 100 Mg./Kg.) | inhibition in vivo at 5 mg/kg (Nematospiroides dubius; [11]) | Dead/Total (in vivo [2]; single oral dose 200 Mg./Kg.) | further results |
| --- | --- | --- | --- | --- | --- | --- | --- | --- | --- | --- | --- | --- | --- | --- | --- | --- | --- | --- | --- |
| c1ccc(C2CN3CCSC3=N2)cc1 (stereo not drawn) [l H, l-6-phenyl-2,3,5,6,-tetrahydroimidazo[2,1-b]thiazole, reference compound] | 8% |  |  |  |  |  |  |  |  |  |  |  |  |  |  |  |  |  | % Efficacy SC (Trichuris vulpis; SC 10 Mg./Kg.): 50%; % Efficacy SC (Trichuris vulpis; SC 15 Mg./Kg.): 43%; % Efficacy SC (Trichuris vulpis; SC 20 Mg./Kg.): 100%; activity against helminths in words (helminths [1]): highly effective against most helminths; activity against whipworms in words (whipworms): not sufficiently active against whipworms, especially in dogs |
| Nc1cccc(C2CN3CCSC3=N2)c1 (stereo not drawn) [m-NH2 l, l-6-(m-Aminophenyl)-2,3,5,6-tetrahydroimidazo[2,1-b]thiazoleDihydrochloride] |  | 0.75 mg/kg | 20 | 15 mg/kg | ~15 mg/kg | 4/5 | 100% | 100% | 10 mg/kg | 4 mg/kg |  |  |  |  |  |  |  |  | Percent Nematospiroides Activity (Nematospiroides dubius; single oral dose 1.25 mg./Kg., molar-adjusted): 59%; Percent Nematospiroides Activity (Nematospiroides dubius; single oral dose 2.0 mg./Kg., molar-adjusted): 88%; Percent Nematospiroides Activity (Nematospiroides dubius; single oral dose 4.0 mg./Kg., molar-adjusted): 98%; Dead/Total (in vivo [2]; single oral dose 4-5 Mg./Kg.): 0/12; Dead/Total (in vivo [2]; single oral dose 10 Mg./Kg.): 2/10; Dead/Total (in vivo [2]; single oral dose 15 Mg./Kg.): 3/9; % Efficacy SC (Trichuris vulpis; SC 1.25 Mg./Kg.): 72%; % Efficacy Orally (Trichuris vulpis; oral 1.25 Mg./Kg.): 94%; % Efficacy Orally (Trichuris vulpis; oral 2.5 Mg./Kg.): 100%; activity relative to the dl compound (helminths [4]): almost twice as active as the dl compound |
| CNc1cccc(C2CN3CCSC3=N2)c1.Cl.Cl (stereo not drawn) [m-NH--CH3 dl, 2,3,5,6-Tetrahydro-6-(m-methylaminophenyl)imidazo[2,1-b]thiazole Dihydrochloride] | 94% | 7 mg/kg | 14 | 100 mg/kg |  | 0/4 | 29% | 100% | > 10 mg/kg | 30 mg/kg | 7 mg/kg | 28% | 66% | 100% | 0/4 | 2/5 |  |  | inhibition in vivo at 30 mg/kg (Nematospiroides dubius; Heligmosomoides polygyrus, po, single oral dose 30 mg./Kg., molar-adjusted, read-out: Percent Nematospiroides Activity): 100% |
| COC(=O)Nc1cccc(C2CN3CCSC3=N2)c1 (stereo not drawn) [m-NH-CO--OCH3 l, l-m-(2,3,5,6-tetrahydroimidazo[2,1-b]thiazol-6-yl)carbanilicacid methyl ester, hydrochloride] |  | 7.5 mg/kg | 20 | ~150 mg/kg | ~125 mg/kg |  |  |  |  |  | 7.5 mg/kg |  | 61% | 100% | 0/5 | 0/5 | 28% | 5/5 | inhibition in vivo at 40 mg/kg (Nematospiroides dubius; Heligmosomoides polygyrus, po, single oral dose 40 mg./Kg., molar-adjusted, read-out: Percent Nematospiroides Activity): 100%; Dead/Total (in vivo [2]; single oral dose 150 Mg./Kg.): 1/5 |
| CC(C)(C)C(=O)Nc1cccc(C2CN3CCSC3=N2)c1 (stereo not drawn) [m-NH-CO-C(CH3)2 l] |  | 1 mg/kg | 100 | 100 mg/kg | ~100 mg/kg |  |  |  |  |  | 1 mg/kg | 69% | 100% |  | 0/6 | 2/6 | 90% | 6/6 | inhibition in vivo at 1.25 mg/kg (Nematospiroides dubius; Heligmosomoides polygyrus, po, single oral dose 1.25 mg./Kg., molar-adjusted, read-out: Percent Nematospiroides Activity): 60% |
